The source of these data is patent US20110257161A1 (priority 2008, published 2011).

Structures can show the parent of a compound that is named as a salt.

In this assay the target is α7-subtype of nicotinic receptors (Rattus norvegicus, UniProt Q05941). As to the kind of experiment: biochemical. The class given is binding.

The IC50 is the concentration that gives 50% inhibition. A lower IC50 goes with greater potency in that assay.

Chain of α7-subtype of nicotinic receptors (Q05941 23-502): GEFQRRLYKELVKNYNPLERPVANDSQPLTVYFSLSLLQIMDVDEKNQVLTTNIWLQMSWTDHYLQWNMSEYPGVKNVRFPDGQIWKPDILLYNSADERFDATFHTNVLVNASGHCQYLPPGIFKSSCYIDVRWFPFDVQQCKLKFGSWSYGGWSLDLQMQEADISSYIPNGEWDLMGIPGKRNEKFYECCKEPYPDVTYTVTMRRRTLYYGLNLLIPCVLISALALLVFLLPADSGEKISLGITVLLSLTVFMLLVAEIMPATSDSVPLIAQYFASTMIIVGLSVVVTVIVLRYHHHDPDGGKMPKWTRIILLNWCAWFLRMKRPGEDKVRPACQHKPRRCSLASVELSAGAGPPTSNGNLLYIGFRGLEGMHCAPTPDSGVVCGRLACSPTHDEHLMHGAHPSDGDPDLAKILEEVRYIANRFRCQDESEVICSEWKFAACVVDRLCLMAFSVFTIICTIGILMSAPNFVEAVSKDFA

Compound `O=c1c2ccccc2ncn1-c1ccc(N2CCN3CCC2CC3)cc1` [Compound E1, 3-[4-(1,4-Diaza-bicyclo[3.2.2]non-4-yl)-phenyl]-3H-quinazolin-4-one fumaric acid salt] had an IC50 of 130 nM.

In turn, `O=c1c2ccccc2nnn1-c1ccc(N2CCN3CCC2CC3)cc1` [Compound D1, 3-[4-(1,4-Diaza-bicyclo[3.2.2]non-4-yl)-phenyl]-3H-benzo[d][1,2,3]triazin-4-one fumaric acid salt] registered an IC50 of 22 nM.
